Experimental data reported in patent publication US7179821B2, “Method of treating of demyelinating diseases or conditions” (Aventis Pharmaceuticals Inc., priority 2001, dated 2007).
Marks after values point to notes of the source that are not given here.

Columns and labels:
[1] = system: photothrombotic cerebral lesion; experiment: Edema after photothrombotic cerebral lesion in the rat; format: in vivo
Protocol: Method: Male Sprague Dawley rats (180–200 g bw) were anaesthetized with chloral hydrate (400 mg/kg ip) and placed in a stereotaxic apparatus. The skin was opened to reveal the skull and a cold light (Bioblock 150 W) was placed in contact with the right side of the skull forward of lambda. Bengal rose dye (10 mg/kg iv in saline) was administered intravenously and illumination of the skull started immediately and continued for 5 minutes. The skin was then sutured closed over the skull and the animal returned to its cage. Twenty-four hours after the photothrombotic lesion animals received HP184 made up in 1% tween in water by intravenous route at 0, 10 or 20 mg/kg body weight in a volume of 5 ml/kg. One hour later, animals were killed by decapitation and their brains removed (see appendix for protocol). Core samples were taken at the site of the lesion, and contralateral to the lesion, using a 6 mm diameter cork borer. Water content was determined by wet weight of tissue/dry weight of tissue and edema expressed as % excess water on lesioned sample compared with sample from contralateral hemisphere for each rat.

[2] = system: transient focal cerebral ischemia; experiment: Transient focal cerebral ischemia in rats, lesion size; format: in vivo, rat; conditions: 10 mg/kg iv 1 hour after ischemia onset
Protocol: Methods: Male Sprague-Dawley rats [Iffa Credo, France] weighing about 220–240 g were anaesthetized with halothane (1.4%) in a nitrous oxide-oxygen mixture (70:30). Both common carotid arteries (CCAs) were isolated. The left middle cerebral artery (MCA) exposed via a temporal craniotomy was occluded with a microclip, and simultaneously the CCAs were occluded for 1 hour. Both body and cerebral temperatures were kept at normothermia. Following surgery animals were returned to their home cages in a room warmed at 24–26° C.
HP184, dissolved in 1% tween (in injectable sterile water), was administered at 10 and 20 mg/kg iv 1 hour after ischemia onset, and control rats received the vehicle according to the same protocol. At 24 h post-ischemia, a neurological function using a 9 points grading scale was performed blindly.
Thereafter rats were killed and brains were removed. Fresh sections were cut with a brain matrix and stained with triphenyl tetrazolium chloride 2% at 37° C. for 5 min. The sections were then stored in 10% formalin at 4° C. for 24 h. Areas of infarction were measured with an image analyzer (Leica Q500).

[3] = system: long-standing (25 days) spinal cord injury of minor intensity; experiment: Chronic crush experiment, 25-day old mild compression injury (1.6 mm), OFT score; format: in vivo, rat; conditions: for OFT score 3 hours after last dose (Day 28, mild) / OFT score 3 hours after last dose: three consecutive daily doses; for OFT score prior to dose (Day 25, mild): group 3 mg/kg po; for OFT score prior to dose (Day 25, mild) / OFT score prior to dose: baseline before dosing
Description: Normal spinal cord diameter is approximately 2.5 mm. This compression represents a moderate injury characterized by initial open field walking scores of 1.5–2.5 in the Open Field Walking Scale. […] The spinal cords of female rats were exposed to laminectomy or crush to a diameter of 1.6 mm. This represented a minor injury, and was designed to result in OFT scores of 4.0 after 25 days of no treatment. […] In this experiment, OFT scores were slightly higher (4.3–4.5), leaving only a small window for improvement. […] Consistent improvement was also observed after once a day ip 0.6 mg/kg 4-AP as well. The statistical differences were based upon the changes for each individual rat (each rat was its own control) using Mann-Whitney U-test. All the behavioral tests on day1, day2 and day3 were performed at 3 hours after gavage. There was no drug given on day3 (first day started to give drug was day 0).

acute bladder irritation = experiment: Bladder irritation in the rat (protamine sulfate/KCl model), continuous open cystometry; format: in vivo; conditions: intravenous, cumulative dose-response, urethane anesthetized rats, P=0.0019
Protocol: Fraser et al combined protamine sulfate treatment, thought to breakdown urothelial umbrella cell barrier function, and physiologic urine concentrations of KCl (500 mM). The effects of intravenous HP-184 were compared to vehicle alone (n=4/group) in a cumulative dose-response study in urethane anesthetized rats with acute bladder irritation. Continuous open cystometry, which measures the filling and emptying of the bladder during continuous infusion, was utilized to determine the effect of the drug on bladder irritation. When the bladder is irritated, it contracts more frequently during the same filling rate due to sensitization of C-fiber afferent nerves. FIG. 8 illustrates the dose-dependent decrease in bladder contraction frequency from pre-administration irritation values compared to the effects of vehicle alone.

NO production = experiment: LPS-induced NO production in mice, plasma nitrate by Griess assay; format: in vivo, mouse; conditions: 30 mg/kg ip 30 minutes prior to LPS 3 mg/kg ip, plasma 5 hours after LPS
Protocol: Mice were injected with 30 mg/kg HP 184 (ip) 30 minutes prior to LPS (3 mg/kg, ip). Mice were sacrificed 5 hours after LPS injection, and plasma collected. Nitrate levels were determined by the Griess assay. Groups were composed of 9–10 mice each.

[4] = system: mechanical hyperalgesia after nerve ligation; experiment: Neuropathic pain model, spinal nerve constriction, von Frey paw withdrawal threshold; format: in vivo, rat; conditions: 20 mg/kg po, tested 3 hours after dosing
Protocol: Adult male Sprague-Dawley rats received unilateral constriction of the L6 nerve to produce chronic nerve injury. Following recovery from surgery (3–7 days post operative) animals were tested for paw withdrawal threshold to mechanical stimuli applied to the affected paw. This was determined by the application of calibrated von Frey monofilaments to the plantar surface of each hindpaw. Only animals with a 50% decrease in withdrawal threshold in the ligated paw were employed in the study, and were randomly assigned to one of 6 groups: three groups receiving one of three doses of HP 184 (0.3, 3 and 20 mg/kg, po), a fourth group receiving a single dose of another compound referred to MDL (10 mg/kg, ip), a fifth group receiving gabapentin (90 mg/kg, sc), and a sixth group receiving vehicle only. Behavioral testing occurred 45 minutes following the gabapentin (90 mg/kg, sc), and 3 hours following the HP 184, MDL, and vehicle. A difference score between the ligated and non-ligated paw withdrawal thresholds is calculated for each animal, and these differences were subjected to ANOVA with group as the main factor. […] Analysis was between/within repeated measures ANOVA. […]

[5] = system: moderate chronic (35 days post-injury) spinal cord crush; experiment: Long standing moderate spinal cord crush (35 days), OFT score; format: in vivo, rat; conditions: 3 mg/kg po, thirty-five days after moderate injury, single dose then daily for 4 more days
[6] = micromolar brain concentrations one hour after ip administration of 30 mg/kg in rats; cited from earlier work

CCCN(c1ccncc1F)n1cc(C)c2ccccc21 [HP184, N-(3-fluoro-4-pyridinyl)-N-propyl-3-methyl-1H-indole-1-amine]
edema (% excess water) at 25 h post lesion ([1]; 10 mg/kg iv at 24 h post lesion): 3.61 ± 0.23 ns % excess water | edema (% excess water) at 25 h post lesion ([1]; 20 mg/kg iv at 24 h post lesion): 3.20 ± 0.27 % excess water | reduction of the edema in the right cerebral cortex ([1]; 20 mg/kg iv, one hour after administration, 25 hours after lesion): 22% | reduction of lesion in the cortex ([2]; cortex): −45% | reduction of brain lesions ([2]; measured 24 h post-ischemia): 41% | OFT improvement compared to vehicle control (Mann-Whitney U-test) ([3]; 3 mg/kg po once a day, p=0.0027): significant improvement at 30 min to 6 h to day 1 | OFT score 3 hours after last dose (Day 28, mild) ([3]; 3 mg/kg po once a day): 4.47 ± .035 | OFT score 3 hours after last dose (Day 28, mild) ([3]; 3 mg/kg po once a day, listed as HP): 4.47 ± 0.04 | OFT improvement compared to vehicle control (Mann-Whitney U-test) ([3]; 10 mg/kg po once a day, p=0.014): significant improvement at 30 min and 3 h to 12 h | OFT score 3 hours after last dose ([3]; 10 mg/kg po once a day): 4.44 ± 0.03 | OFT improvement compared to vehicle control (Mann-Whitney U-test) ([3]; 20 mg/kg po once a day, p=0.002): significant improvement at 3 h to day 3 | OFT score 3 hours after last dose ([3]; 20 mg/kg po once a day): 4.60 ± 0.02 | % possible improvement (highest score = 5), mild ([3]; 3 mpk po): 22.0%* | Delta of OFT score, Day 25 to Day 28 (mild) ([3]; 3 mpk po): .15 | OFT score prior to dose (Day 25, mild) [3]: 4.32 ± .016 | OFT score prior to dose (Day 25, mild) ([3]; listed as HP): 4.32 ± 0.05 | OFT score prior to dose ([3]; group 10 mg/kg po): 4.36 ± 0.01 | OFT score prior to dose ([3]; group 20 mg/kg po): 4.54 ± 0.02 | bladder contraction frequency in irritated bladders, FIG. 8 (acute bladder irritation): significantly decreased bladder contraction frequency in irritated bladders in a dose-dependent fashion | NO production (plasma nitrate), FIG. 9 (NO production): inhibits NO production | mechanical hyperalgesia, difference of ligated minus normal paw withdrawal threshold, FIG. 10 [4]: dose-response attentuation of L5 ligation mechanical hyperlagesia | motor recovery, Open Field Walking Test [5]: improves motor recovery after a single dose | tolerability [6]: very well-tolerated
